Reference: ChEMBL document CHEMBL3046208, “Natural and synthetic podolactones with potential use as natural herbicide models” (2000)
Activity calls are given as the source filed them. No cut-off for these calls is given here.

Columns and labels:
Format in all cases: functional
Allium cepa [1] = assay: Stimulation of germination of Allium cepa (onion) at 0.1 mM after 5 days relative to untreated control
Triticum aestivum [2] = assay: Inhibition of root length of Triticum aestivum (wheat) at 0.1 mM after 5 days relative to untreated control; details: 120 h
Hordeum vulgare [3] = assay: Inhibition of shoot length of Hordeum vulgare (barley) at 0.1 mM after 5 days relative to untreated control; details: 120 h
Lepidium sativum [4] = assay: Inhibition of shoot length of Lepidium sativum at 0.1 mM after 5 days relative to untreated control; details: 120 h
Lepidium sativum [5] = assay: Inhibition of root length of Lepidium sativum at 0.1 mM after 5 days relative to untreated control; details: 120 h
Lactuca sativa [6] = assay: Inhibition of shoot length of Lactuca sativa cv. Roman (lettuce) at 0.1 mM after 5 days relative to untreated control
Lactuca sativa [7] = assay: Stimulation of germination of Lactuca sativa cv. Roman (lettuce) at 0.1 mM after 5 days relative to untreated control
Triticum aestivum [8] = assay: Stimulation of shoot length of Triticum aestivum (wheat) at 0.1 mM after 5 days relative to untreated control
Hordeum vulgare [9] = assay: Inhibition of root length of Hordeum vulgare (barley) at 0.1 mM after 5 days relative to untreated control; details: 120 h
Lactuca sativa [10] = assay: Inhibition of shoot length of Lactuca sativa cv. Nigra (lettuce) at 0.1 mM after 5 days relative to untreated control; details: 120 h
Lactuca sativa [11] = assay: Inhibition of root length of Lactuca sativa cv. Roman (lettuce) at 0.1 mM after 5 days relative to untreated control
Triticum aestivum [12] = assay: Stimulation of germination of Triticum aestivum (wheat) at 0.1 mM after 5 days relative to untreated control
Solanum lycopersicum [13] = assay: Stimulation of root length of Solanum lycopersicum (tomato) at 0.1 mM after 5 days relative to untreated control
Lactuca sativa [14] = assay: Stimulation of root length of Lactuca sativa cv. Nigra (lettuce) at 0.1 mM after 5 days relative to untreated control
Lepidium sativum [15] = assay: Stimulation of shoot length of Lepidium sativum at 0.1 mM after 5 days relative to untreated control
Hordeum vulgare [16] = assay: Stimulation of germination of Hordeum vulgare (barley) at 0.1 mM after 5 days relative to untreated control
Lactuca sativa [17] = assay: Stimulation of shoot length of Lactuca sativa cv. Roman (lettuce) at 0.1 mM after 5 days relative to untreated control
Solanum lycopersicum [18] = assay: Inhibition of root length of Solanum lycopersicum (tomato) at 0.1 mM after 5 days relative to untreated control; details: 120 h
Solanum lycopersicum [19] = assay: Stimulation of shoot length of Solanum lycopersicum (tomato) at 0.1 mM after 5 days relative to untreated control
Lactuca sativa [20] = assay: Stimulation of root length of Lactuca sativa cv. Roman (lettuce) at 0.1 mM after 5 days relative to untreated control
Lepidium sativum [21] = assay: Stimulation of root length of Lepidium sativum at 0.1 mM after 5 days relative to untreated control
Lactuca sativa [22] = assay: Stimulation of shoot length of Lactuca sativa cv. Nigra (lettuce) at 0.1 mM after 5 days relative to untreated control
Hordeum vulgare [23] = assay: Stimulation of root length of Hordeum vulgare (barley) at 0.1 mM after 5 days relative to untreated control
Solanum lycopersicum [24] = assay: Inhibition of shoot length of Solanum lycopersicum (tomato) at 0.1 mM after 5 days relative to untreated control; details: 120 h
Allium cepa [25] = assay: Inhibition of root length of Allium cepa (onion) at 0.1 mM after 5 days relative to untreated control
Solanum lycopersicum [26] = assay: Stimulation of root length of Solanum lycopersicum (tomato) at 0.1 uM after 5 days relative to untreated control
Triticum aestivum [27] = assay: Stimulation of root length of Triticum aestivum (wheat) at 0.1 mM after 5 days relative to untreated control
Lactuca sativa [28] = assay: Stimulation of germination of Lactuca sativa cv. Nigra (lettuce) at 0.1 mM after 5 days relative to untreated control
Lepidium sativum [29] = assay: Inhibition of germination of Lepidium sativum at 0.1 mM after 5 days relative to untreated control
Lactuca sativa [30] = assay: Inhibition of germination of Lactuca sativa cv. Roman (lettuce) at 0.1 mM after 5 days relative to untreated control
Allium cepa [31] = assay: Stimulation of root length of Allium cepa (onion) at 0.1 mM after 5 days relative to untreated control
Hordeum vulgare [32] = assay: Inhibition of germination of Hordeum vulgare (barley) at 0.1 mM after 5 days relative to untreated control; details: 120 h
Hordeum vulgare [33] = assay: Stimulation of shoot length of Hordeum vulgare (barley) at 0.1 mM after 5 days relative to untreated control
Allium cepa [34] = assay: Inhibition of germination of Allium cepa (onion) at 0.1 mM after 5 days relative to untreated control; details: 120 h
Allium cepa [35] = assay: Stimulation of shoot length of Allium cepa (onion) at 0.1 mM after 5 days relative to untreated control
Allium cepa [36] = assay: Inhibition of shoot length of Allium cepa (onion) at 0.1 mM after 5 days relative to untreated control; details: 120 h
Lepidium sativum [37] = assay: Stimulation of germination of Lepidium sativum at 0.1 mM after 5 days relative to untreated control
Triticum aestivum [38] = assay: Inhibition of germination of Triticum aestivum (wheat) at 0.1 mM after 5 days relative to untreated control; details: 120 h
Lactuca sativa [39] = assay: Inhibition of germination of Lactuca sativa cv. Nigra (lettuce) at 0.1 mM after 5 days relative to untreated control; details: 120 h
Solanum lycopersicum [40] = assay: Inhibition of germination of Solanum lycopersicum (tomato) at 0.1 mM after 5 days relative to untreated control
Solanum lycopersicum [41] = assay: Stimulation of germination of Solanum lycopersicum (tomato) at 0.1 mM after 5 days relative to untreated control
Triticum aestivum [42] = assay: Inhibition of shoot length of Triticum aestivum (wheat) at 0.1 mM after 5 days relative to untreated control
Lactuca sativa [43] = assay: Inhibition of root length of Lactuca sativa cv. Nigra (lettuce) at 0.1 mM after 5 days relative to untreated control

COC(=O)[C@@]1(C)CCC[C@]2(C)c3cc(=O)occ3CC[C@@H]12
Activity (Allium cepa [1]): <20% | inhibition at 100 µM (Triticum aestivum [2]): < 20% | inhibition at 100 µM (Hordeum vulgare [3]): < 20% | inhibition at 100 µM (Lepidium sativum [4]): < 20% | inhibition at 100 µM (Lepidium sativum [5]): 20% | inhibition (Lactuca sativa [6]): inactive | Activity (Lactuca sativa [7]): inactive | Activity (Triticum aestivum [8]): inactive | inhibition at 100 µM (Hordeum vulgare [9]): 20% | inhibition at 100 µM (Lactuca sativa [10]): < 20% | inhibition (Lactuca sativa [11]): inactive | Activity (Triticum aestivum [12]): <20% | Activity (Solanum lycopersicum [13]): >40% | Activity (Lactuca sativa [14]): inactive | Activity (Lepidium sativum [15]): <20% | Activity (Hordeum vulgare [16]): 20% | Activity (Lactuca sativa [17]): inactive | inhibition at 100 µM (Solanum lycopersicum [18]): > 40% | Activity (Solanum lycopersicum [19]): <20% | Activity (Lactuca sativa [20]): inactive | Activity (Lepidium sativum [21]): 20% | Activity (Lactuca sativa [22]): <20% | Activity (Hordeum vulgare [23]): 20% | inhibition at 100 µM (Solanum lycopersicum [24]): < 20% | inhibition (Allium cepa [25]): inactive | Activity (Solanum lycopersicum [26]): 58% | Activity (Triticum aestivum [27]): <20% | Activity (Lactuca sativa [28]): <20% | inhibition (Lepidium sativum [29]): inactive | inhibition (Lactuca sativa [30]): inactive | Activity (Allium cepa [31]): inactive | inhibition at 100 µM (Hordeum vulgare [32]): 20% | Activity (Hordeum vulgare [33]): <20% | inhibition at 100 µM (Allium cepa [34]): < 20% | Activity (Allium cepa [35]): <20% | inhibition at 100 µM (Allium cepa [36]): < 20% | Activity (Lepidium sativum [37]): inactive | inhibition at 100 µM (Triticum aestivum [38]): < 20% | inhibition at 100 µM (Lactuca sativa [39]): < 20% | inhibition (Solanum lycopersicum [40]): inactive | Activity (Solanum lycopersicum [41]): inactive | inhibition (Triticum aestivum [42]): inactive | inhibition (Lactuca sativa [43]): inactive
